Columns and labels:
Assay type in all cases: in vivo
[1] = test system: barnyardgrass (Echinochloa crus-galli); assay: Test G Post-Emergence Protocol; conditions: Echinochloa crus-galli, post-emergence, 312 h, read-out: Barnyardgrass damage rating
How it was run: (§1)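 Damage was rated 13 days after treatment from 0 (none) to 100 (plant killed). Compound was applied as a spray at 15.625, 62.5 or 250 g/ha in 50:50 acetone/water containing 0.5% Tween 20, onto 8-day-old potted plants kept in a glasshouse (24/16 °C, 14 h light, 65% humidity).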

[2] = test system: redroot pigweed (Amaranthus retroflexus); assay: Test G Post-Emergence Protocol; conditions: Amaranthus retroflexus, post-emergence, 312 h, read-out: Pigweed, Redroot damage rating
How it was run: as §1

[3] = test system: velvetleaf (Abutilon theophrasti); assay: Test G Post-Emergence Protocol; conditions: Abutilon theophrasti, post-emergence, 312 h, read-out: Velvetleaf damage rating
How it was run: as §1

[4] = test system: giant foxtail (Setaria faberi); assay: Test G Post-Emergence Protocol; conditions: Setaria faberi, post-emergence, 312 h, read-out: Foxtail, Giant damage rating
How it was run: as §1

[5] = test system: ivy-leaved morning glory (Ipomoea hederacea); assay: Test G Post-Emergence Protocol; conditions: Ipomoea, post-emergence, 312 h, read-out: Morningglory, Ivy-leaved damage rating
How it was run: as §1

corn (Zea mays) [6] = assay: Test G Post-Emergence Protocol; conditions: Zea mays, post-emergence, 312 h, read-out: Corn damage rating
How it was run: as §1

[7] = test system: barnyardgrass (Echinochloa crus-galli); assay: Test G Pre-Emergence Protocol; conditions: Echinochloa crus-galli, pre-emergence, 312 h, evaluated after 13 days
How it was run: (§2)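 One day after sowing, pots are treated with a spray of test compound formulated in acetone/water 50:50 plus 0.5% Tween 20, giving 15.625, 62.5 or 250 g/ha. Evaluation on a 0–100 damage scale follows 13 days of glasshouse growth.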

[8] = test system: redroot pigweed (Amaranthus retroflexus); assay: Test G Pre-Emergence Protocol; conditions: Amaranthus retroflexus, pre-emergence, 312 h, evaluated after 13 days
How it was run: as §2

[9] = test system: velvetleaf (Abutilon theophrasti); assay: Test G Pre-Emergence Protocol; conditions: Abutilon theophrasti, pre-emergence, 312 h, evaluated after 13 days
How it was run: as §2

[10] = test system: giant foxtail (Setaria faberi); assay: Test G Pre-Emergence Protocol; conditions: Setaria faberi, pre-emergence, 312 h, evaluated after 13 days
How it was run: as §2

[11] = test system: ivy-leaved morning glory (Ipomoea hederacea); assay: Test G Pre-Emergence Protocol; conditions: Ipomoea, pre-emergence, 312 h, evaluated after 13 days
How it was run: as §2

corn (Zea mays) [12] = assay: Test G Pre-Emergence Protocol; conditions: Zea mays, pre-emergence, 312 h, evaluated after 13 days
How it was run: as §2

[13] = 15.625 g ai/ha, evaluated after 13 days (100=total damage to plant; 0=no damage to plant)
[14] = 62.5 g ai/ha, evaluated after 13 days, 100=total damage to plant, 0=no damage to plant
[15] = 250 g ai/ha, evaluated after 13 days, 100=total damage to plant, 0=no damage to plant

COc1cc(C2CN(C)C(=O)C2C(=O)Nc2cccc(F)c2F)cc(F)c1F (stereo not drawn) [Compound 1706]
pest or weed control at 15.625 g/ha [1, 13]: 40% | pest or weed control at 62.5 g/ha [1, 14]: 60% | pest or weed control at 250 g/ha [1, 15]: 80% | pest or weed control at 15.625 g/ha [2, 13]: 0% | pest or weed control at 62.5 g/ha [2, 14]: 10% | pest or weed control at 250 g/ha [2, 15]: 20% | pest or weed control at 15.625 g/ha [3, 13]: 0% | pest or weed control at 62.5 g/ha [3, 14]: 20% | pest or weed control at 250 g/ha [3, 15]: 20% | pest or weed control at 15.625 g/ha [4, 13]: 70% | pest or weed control at 62.5 g/ha [4, 14]: 80% | pest or weed control at 250 g/ha [4, 15]: 80% | pest or weed control at 15.625 g/ha [5, 13]: 20% | pest or weed control at 62.5 g/ha [5, 14]: 0% | pest or weed control at 250 g/ha [5, 15]: 60% | plant injury at 15.625 g/ha (corn (Zea mays) [6]; [13]): 0% | plant injury at 62.5 g/ha (corn (Zea mays) [6]; [14]): 0% | plant injury at 250 g/ha (corn (Zea mays) [6]; [15]): 70% | pest or weed control at 15.625 g/ha ([7]; 15.625 g ai/ha, read-out: Barnyardgrass damage rating (100=total damage to plant; 0=no damage to plant)): 40% | pest or weed control at 62.5 g/ha ([7]; 62.5 g ai/ha, 100=total damage to plant, 0=no damage to plant, read-out: Barnyardgrass damage rating): 60% | pest or weed control at 250 g/ha ([7]; 250 g ai/ha, read-out: Barnyardgrass damage rating (100=total damage to plant; 0=no damage to plant)): 80% | pest or weed control at 15.625 g/ha ([8]; 15.625 g ai/ha, read-out: Pigweed, Redroot damage rating (100=total damage to plant; 0=no damage to plant)): 0% | pest or weed control at 62.5 g/ha ([8]; 62.5 g ai/ha, 100=total damage to plant, 0=no damage to plant, read-out: Pigweed, Redroot damage rating): 0% | pest or weed control at 250 g/ha ([8]; 250 g ai/ha, read-out: Pigweed, Redroot damage rating (100=total damage to plant; 0=no damage to plant)): 20% | pest or weed control at 15.625 g/ha ([9]; 15.625 g ai/ha, read-out: Velvetleaf damage rating (100=total damage to plant; 0=no damage to plant)): 0% | pest or weed control at 62.5 g/ha ([9]; 62.5 g ai/ha, 100=total damage to plant, 0=no damage to plant, read-out: Velvetleaf damage rating): 0% | pest or weed control at 250 g/ha ([9]; 250 g ai/ha, read-out: Velvetleaf damage rating (100=total damage to plant; 0=no damage to plant)): 10% | pest or weed control at 15.625 g/ha ([10]; 15.625 g ai/ha, read-out: Foxtail, Giant damage rating (100=total damage to plant; 0=no damage to plant)): 50% | pest or weed control at 62.5 g/ha ([10]; 62.5 g ai/ha, 100=total damage to plant, 0=no damage to plant, read-out: Foxtail, Giant damage rating): 70% | pest or weed control at 250 g/ha ([10]; 250 g ai/ha, read-out: Foxtail, Giant damage rating (100=total damage to plant; 0=no damage to plant)): 90% | pest or weed control at 15.625 g/ha ([11]; 15.625 g ai/ha, read-out: Morningglory, Ivy-leaved damage rating (100=total damage to plant; 0=no damage to plant)): 0% | pest or weed control at 62.5 g/ha ([11]; 62.5 g ai/ha, 100=total damage to plant, 0=no damage to plant, read-out: Morningglory, Ivy-leaved damage rating): 0% | pest or weed control at 250 g/ha ([11]; 250 g ai/ha, read-out: Morningglory, Ivy-leaved damage rating (100=total damage to plant; 0=no damage to plant)): 0% | plant injury at 15.625 g/ha (corn (Zea mays) [12]; 15.625 g ai/ha, read-out: Corn damage rating (100=total damage to plant; 0=no damage to plant)): 0% | plant injury at 62.5 g/ha (corn (Zea mays) [12]; 62.5 g ai/ha, 100=total damage to plant, 0=no damage to plant, read-out: Corn damage rating): 10% | plant injury at 250 g/ha (corn (Zea mays) [12]; 250 g ai/ha, read-out: Corn damage rating (100=total damage to plant; 0=no damage to plant)): 40%
